Reference: patent publication US12410171B2, “Tropomyosin receptor kinase (TRK) degradation compounds and methods of use” (Cullgen (Shanghai), Inc., priority 2020, dated 2025)
Like-named read-outs stand apart in the source and are kept apart here.

What was measured:
[1] = target: T1, TPM3-TRKA fusion protein (Homo sapiens, UniProt P04629); assay: TPM3-TRKA fusion protein levels in KM12 cells (Western blot); assay type: cell-based; conditions: for percent degradation of TPM3-TRKA protein at 0.01 µM: read-out: Degradation (at 10 nM); for relative effectiveness at degrading TRKA: KM12 cells, 0.4-30 nM, 8-16 hours, comparison of enantiomers (FIG. 28A-28B)
T1 construct: The resulted chimeric proteins always retain the kinase domain of TRK proteins; TPM3 (fusion partner, N-terminal part of tropomyosin alpha-3, P06753); endogenous in cells; host or cells: KM12 colon cancer cells; the other entry of the earlier key: TPM3 (P06753, Tropomyosin alpha-3 chain)
T1 sequence (P04629 with tags, fused parts or gaps): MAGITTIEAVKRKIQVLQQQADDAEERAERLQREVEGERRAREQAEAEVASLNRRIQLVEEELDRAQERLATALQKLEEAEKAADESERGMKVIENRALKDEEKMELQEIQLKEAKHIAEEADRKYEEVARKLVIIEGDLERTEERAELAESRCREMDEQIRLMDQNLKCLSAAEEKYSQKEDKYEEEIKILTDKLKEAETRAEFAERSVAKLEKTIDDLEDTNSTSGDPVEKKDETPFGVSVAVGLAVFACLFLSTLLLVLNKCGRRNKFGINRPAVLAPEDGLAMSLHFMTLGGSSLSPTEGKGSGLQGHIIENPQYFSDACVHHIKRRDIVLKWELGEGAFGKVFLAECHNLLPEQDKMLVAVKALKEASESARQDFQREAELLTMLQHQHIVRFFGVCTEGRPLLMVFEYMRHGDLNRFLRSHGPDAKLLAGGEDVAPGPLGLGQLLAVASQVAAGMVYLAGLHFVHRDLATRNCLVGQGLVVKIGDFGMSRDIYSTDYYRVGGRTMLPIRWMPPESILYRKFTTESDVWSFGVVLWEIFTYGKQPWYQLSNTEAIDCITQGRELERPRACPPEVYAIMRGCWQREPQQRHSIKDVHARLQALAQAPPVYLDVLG
Outline: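 KM12 colon cancer cells were treated with DMSO or compounds at 0.1–100 nM, 0.4–30 nM or other stated concentrations for 4, 8–16 or 16 h. RIPA lysates were BCA-normalized and resolved by SDS-PAGE. TPM3-TRKA was detected by chemiluminescent Western blot, with bands quantified by densitometry.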

[2] = tested on: KM12 cells; assay: KM12 cell viability (CellTiter-Glo); assay type: cell-based; conditions: Homo sapiens, 72 h; KM12 cell viability, CellTiter-Glo, three days treatment; read-out: IC50
Outline: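 KM12 cells seeded at 5000 per well in RPMI 1640 + 10% FBS and exposed 3 days to serial dilutions (11-point 3-fold, 8-point 3-fold from 1000 nM, or 12-point 2-fold). Viability by CellTiter-Glo; IC50 from least-squares nonlinear regression.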

[3] = 16 h, TPM3-TRKA degradation in KM12 cells at 10 nM compound, category of percentage degradation

Row | percent degradation of TPM3-TRKA protein at 0.01 µM [1, 3] | Compound | IC50 [2] | percent degradation of TPM3-TRKA protein at 0.01 µM ([1]; KM12, 16 h) | relative effectiveness at degrading TRKA [1]
1 | > 80% | O=C1CCC(N2Cc3cc(N4CC(N5CCN(c6ccc(C(=O)Nc7n[nH]c8ccc(Cc9cc(F)cc(F)c9)cc78)c(NC7CCOCC7)c6)CC5)C4)ccc3C2=O)C(=O)N1 (stereo not drawn) [TR-332, N-(5-(3,5-difluorobenzyl)-1H-indazol-3-yl)-4-(4-(1-(2-(2,6-dioxopiperidin-3-yl)-1-oxoisoindolin-5-yl)azetidin-3-yl)piperazin-1-yl)-2-((tetrahydro-2H-pyran-4-yl)amino)benzamide] | 1.7 nM |  | 
2 | > 80% | O=C1CCC(N2Cc3ccc(N4CC(N5CCN(c6ccc(C(=O)Nc7n[nH]c8ccc(Cc9cc(F)cc(F)c9)cc78)c(NC7CCOCC7)c6)CC5)C4)cc3C2=O)C(=O)N1 (stereo not drawn) [TR-336, N—(S-(3,5-difluorobenzyl)-1H-indazol-3-yl)-4-(4-(1-(2-(2,6-dioxopiperidin-3-yl)-3-oxoisoindolin-5-yl)azetidin-3-yl)piperazin-1-yl)-2-((tetrahydro-2H-pyran-4-yl)amino)benzamide] | 3.2 nM |  | 
3 | > 80% | O=C1CCC(N2C(=O)c3ccc(N4CC(NC5CCN(c6ccc(C(=O)Nc7n[nH]c8ccc(Cc9cc(F)cc(F)c9)cc78)c(NC7CCOCC7)c6)CC5)C4)cc3C2=O)C(=O)N1 (stereo not drawn) [TR-337, N-(5-(3,5-difluorobenzyl)-1H-indazol-3-yl)-4-(4-((1-(2-(2,6-dioxopiperidin-3-yl)-1,3-dioxoisoindolin-5-yl)azetidin-3-yl)amino)piperidin-1-yl)-2-((tetrahydro-2H-pyran-4-yl)amino)benzamide] | 5.5 nM |  | 
4 | > 80% | O=C1CC[C@H](N2C(=O)c3ccc(N4CC(CN5CCN(c6ccc(C(=O)Nc7n[nH]c8ccc(Cc9cc(F)cc(F)c9)cc78)c(NC7CCOCC7)c6)CC5)C4)cc3C2=O)C(=O)N1 [TR-341, (S)—N-(5-(3,5-difluorobenzyl)-1H-indazol-3-yl)-4-(4-((1-(2-(2,6-dioxopiperidin-3-yl)-1,3-dioxoisoindolin-5-yl)azetidin-3-yl)methyl)piperazin-1-yl)-2-((tetrahydro-2H-pyran-4-yl)amino)benzamide] | 3 nM |  | 
5 | > 80% | O=C1CC[C@@H](N2C(=O)c3ccc(N4CC(CN5CCN(c6ccc(C(=O)Nc7n[nH]c8ccc(Cc9cc(F)cc(F)c9)cc78)c(NC7CCOCC7)c6)CC5)C4)cc3C2=O)C(=O)N1 [TR-342, (R)—N-(5-(3,5-difluorobenzyl)-1H-indazol-3-yl)-4-(4-((1-(2-(2,6-dioxopiperidin-3-yl)-1,3-dioxoisoindolin-5-yl)azetidin-3-yl)methyl)piperazin-1-yl)-2-((tetrahydro-2H-pyran-4-yl)amino)benzamide] | 3 nM |  | more effective at degrading TRKA at lower concentrations than TR-342
6 | > 80% | O=C1CC[C@H](N2C(=O)c3ccc(N4CC(N5CCN(c6ccc(C(=O)Nc7n[nH]c8ccc(Cc9cc(F)cc(F)c9)cc78)c(NC7CCOCC7)c6)CC5)C4)cc3C2=O)C(=O)N1 [TR-343, (S)—N-(5-(3,5-difluorobenzyl)-1H-indazol-3-yl)-4-(4-(1˜ (2-(2,6-dioxopiperidin-3-yl)-1,3-dioxoisoindolin-5-yl)azetidin-3-yl)piperazin-1-yl)-2-((tetrahydro-2H-pyran-4-yl)amino)benzamide] | 9 nM |  | more effective at degrading TRKA at lower concentrations than TR-344
7 | > 80% | O=C1CC[C@@H](N2C(=O)c3ccc(N4CC(N5CCN(c6ccc(C(=O)Nc7n[nH]c8ccc(Cc9cc(F)cc(F)c9)cc78)c(NC7CCOCC7)c6)CC5)C4)cc3C2=O)C(=O)N1 [TR-344, (R)—N—(S-(3,5-difluorobenzyl)-1H-indazol-3-yl)-4-(4-(1-(2-(2,6-dioxopiperidin-3-yl)-1,3-dioxoisoindolin-5-yl)azetidin-3-yl)piperazin-1-yl)-2-((tetrahydro-2H-pyran-4-yl)amino)benzamide] | 9 nM |  | 

The remaining lines, values behind:

Row | Compound | percent degradation of TPM3-TRKA protein at 0.01 µM [1, 3] | IC50 [2] | percent degradation of TPM3-TRKA protein at 0.01 µM ([1]; KM12, 16 h) | relative effectiveness at degrading TRKA [1]
8 | O=C1CCC(N2Cc3cc(N4CC(N5CCN(c6cccc(-c7cnc8ccc(N9CCC[C@@H]9c9cccc(F)c9)nn78)n6)CC5)C4)ccc3C2=O)C(=O)N1 (stereo partly drawn) [TR-331, 3-(5-(3-(4-(6-(6-((R)-2-(3-fluorophenyl)pyrrolidin-1-yl)imidazo[1,2-b]pyridazin-3-yl)pyridin-2-yl)piperazin-1-yl)azetidin-1-yl)-1-oxoisoindolin-2-yl)piperidine-2,6-dione] | > 80% | 1.6 nM |  | 
9 | Cc1nc2cccc(N3CC(CN4CCN(c5ccc(C(=O)Nc6n[nH]c7ccc(Cc8cc(F)cc(F)c8)cc67)c(NC6CCOCC6)c5)CC4)C3)c2c(=O)n1C1CCC(=O)NC1=O (stereo not drawn) [TR-333, N-(5-(3,5˜Difluorobenzyl)-1H-indazol-3-yl)-4-(4-((1-(3-(2,6-dioxopiperidin-3-yl)-2-methyl-4-oxo-3,4-dihydroquinazolin-5-yl)azetidin-3-yl)methyl)piperazin-1-yl)-2-((tetrahydro-2H-pyran-4-yl)amino)benzamide] | 50 to 80% | 10.5 nM |  | 
10 | Cc1nc2cccc(N3CC(CCN4CCN(c5ccc(C(=O)Nc6n[nH]c7ccc(Cc8cc(F)cc(F)c8)cc67)c(NC6CCOCC6)c5)CC4)C3)c2c(=O)n1C1CCC(=O)NC1=O (stereo not drawn) [TR-334, N-(5-(3,5-Difluorobenzyl)-1H-indazol-3-yl)-4-(4-(2-(1-(3-(2,6-dioxopiperidin-3-yl)-2-methyl-4-oxo-3,4-dihydroquinazolin-5-yl)azetidin-3-yl)ethyl)piperazin-1-yl)-2-((tetrahydro-2/-pyran-4-yl)amino)benzamide] | 50 to 80% | 24.6 nM |  | 
11 | O=C1CCC(N2Cc3ccc(N4CC(N5CCN(c6cccc(-c7cnc8ccc(N9CCC[C@@H]9c9cccc(F)c9)nn78)n6)CC5)C4)cc3C2=O)C(=O)N1 (stereo partly drawn) [TR-335, 3-(6-(3-(4-(6-(6-((R)-2-(3-fluorophenyl)pyrrolidin-1-yl)imidazo[1,2-b]pyridazin-3-yl)pyridin-2-yl)piperazin-1-yl)azetidin-1-yl)-1-oxoisoindolin-2-yl)piperidine-2,6-dione] | 50 to 80% | 8.3 nM |  | 
12 | O=C1CCC(N2Cc3cc(C4CN(C5CCN(c6ccc(C(=O)Nc7n[nH]c8ccc(Cc9cc(F)cc(F)c9)cc78)c(NC7CCOCC7)c6)CC5)C4)ccc3C2=O)C(=O)N1 (stereo not drawn) [TR-338, N-(5-(3,5-difluorobenzyl)-1H-indazol-3-yl)-4-(4-(3-(2-(2,6-dioxopiperidin-3-yl)-1-oxoisoindolin-5-yl)azetidin-1-yl)piperidin-1-yl)-2-((tetrahydro-2H-pyran-4-yl)amino)benzamide] |  | 1.3 nM | > 80% | 
13 | O=C1CCC(N2C(=O)c3ccc(C4CN(C5CCN(c6ccc(C(=O)Nc7n[nH]c8ccc(Cc9cc(F)cc(F)c9)cc78)c(NC7CCOCC7)c6)CC5)C4)cc3C2=O)C(=O)N1 (stereo not drawn) [TR-339, N-(5-(3,5-difluorobenzyl)-1H-indazol-3-yl)-4-(4-(3-(2-(2,6-dioxopiperidin-3-yl)-1,3-dioxoisoindolin-5-yl)azetidin-1-yl)piperidin-1-yl)-2-((tetrahydro-2H-pyran-4-yl)amino)benzamide] | > 80% | 8.1 nM |  | 
14 | O=C1CCC(N2C(=O)c3ccc(N4CC5(C4)CN(C4CCN(c6ccc(C(=O)Nc7n[nH]c8ccc(Cc9cc(F)cc(F)c9)cc78)c(NC7CCOCC7)c6)CC4)C5)cc3C2=O)C(=O)N1 (stereo not drawn) [TR-340, N-(5-(3,5-difluorobenzyl)-1H-indazol-3-yl)-4-(4-(6-(2-(2,6-dioxopiperidin-3-yl)-1,3-dioxoisoindolin-5-yl)-2,6-diazaspiro[3.3]heptan-2-yl)piperidin-1-yl)-2-((tetrahydro-2H-pyran-4-yl)amino)benzamide] | > 80% | 7.5 nM |  | 
